The Kinase Knowledgebase extract (Sharma et al. 2016)
pIC50: −log10 of the molar value.

Target: CDK2 (human) (UniProt P24941)
Experiment: Cell-Based Assay

SMILES	pIC50 (a549)	pIC50 (saos-2)	pIC50 (ht-29)	pIC50 (hs-27)	pIC50 (imr90)	pIC50 (w138)	pIC50 (hela)	pIC50 (mcf-7)
Cc1c[nH]c(C)c1-c1ccnc(Nc2ccc(I)c(Cl)c2)n1	5.36	–	–	–	–	–	–	–
Cc1[nH]c(C#N)c(C)c1-c1ccnc(Nc2cccc(O)c2)n1	–	6.05	–	–	–	–	–	–
Cc1[nH]c(C#N)c(C)c1-c1ccnc(Nc2ccc(N(C)C)cc2)n1	5.85	5.82	6.77	–	–	–	–	–
Cc1[nH]c(CN(C)C)c(C)c1-c1ccnc(Nc2ccc(F)cc2)n1	5.56	6.15	5.49	–	–	–	–	–
Cc1[nH]c(C#N)c(C)c1-c1ccnc(Nc2ccc(F)cc2)n1	–	–	–	4.82	4.68	5.02	–	–
Cc1[nH]c(Br)c(C)c1-c1ccnc(Nc2cccc([N+](=O)[O-])c2)n1	5.12	4.91	5.53	–	–	–	–	–
Cc1[nH]c(C#N)c(C)c1-c1ccnc(Nc2ccc(I)cc2)n1	6.29	6.12	6.96	4.45	4.43	4.67	7.05	6.35
Cc1ccc(Nc2nccc(-c3c(C)[nH]c(C#N)c3C)n2)cc1F	5.83	5.65	6.55	–	–	–	–	–
CCN(CC)Cc1[nH]c(C)c(-c2ccnc(Nc3ccc(F)cc3)n2)c1C	6.01	5.79	5.88	–	–	–	–	–
Cc1[nH]c([N+](=O)[O-])c(C)c1-c1ccnc(Nc2ccc(N(C)C)cc2)n1	5.52	5.58	6.21	–	–	–	–	–
Cc1[nH]c(CN2CCN(C)CC2)c(C)c1-c1ccnc(Nc2ccc(F)cc2)n1	4.86	4.85	5.29	–	–	–	–	–
Cc1cc(Nc2nccc(-c3c(C)[nH]c(C#N)c3C)n2)ccc1Cl	5.36	5.23	5.49	–	–	–	–	–
Cc1ccc(Nc2nccc(-c3c(C)[nH]c(C#N)c3C)n2)cc1I	5.44	5.51	6.14	–	–	–	–	–
Cc1[nH]c(C#N)c(C)c1-c1ccnc(Nc2ccc(C(F)(F)F)cc2)n1	5.44	5.47	6.02	–	–	–	–	–
Cc1c[nH]c(C)c1-c1ccnc(Nc2ccc(C(F)(F)F)cc2)n1	4.82	4.77	5.51	–	–	–	–	–
